Results on 1 compound are retold here after article PMC5804415, “Comparison of ^68Ga-DOTA-Siglec-9 and ^18F-Fluorodeoxyribose-Siglec-9: Inflammation Imaging and Radiation Dosimetry” (Contrast Media & Molecular Imaging, 2017).

In experiment [1] the test system is LDLR^−/−ApoB^100/100 atherosclerotic mice. Put plainly: PET/CT imaging of atherosclerotic mice. Particulars: atherosclerotic LDLR^−/−ApoB^100/100 mice, 10–20 min after injection, mean ± SD, n = 2. The class given is in vivo, mouse. How it is done: Six-month-old atherosclerotic low-density lipoprotein receptor-deficient mice (weight, 27 ± 4.1 g; n = 19) expressing only apolipoprotein B100 (LDLR^−/−ApoB^100/100, strain #003000; Jackson Laboratory, Bar Harbor, ME, USA) were fed for 4 months with a Western-type diet. Two-month-old C57BL/6N mice (weight, 24 ± 2.2 g; n = 13) fed with a regular chow served as controls.
A subset of mice (two atherosclerotic, two controls) were injected with 4.7 ± 1.1 MBq of ^18F-FDR-Siglec-9 and imaged with an Inveon Multimodality PET/CT (Siemens, Medical Solutions, Knoxville, TN, USA). Dynamic PET images were acquired for 60 min, followed by CT with a contrast agent (eXIATM160XL, Binitio Biomedical Inc., Ottawa, ON, Canada). The PET images were reconstructed with OSEM3D (frames 5 × 60 s, 3 × 300 s, 1 × 600 s, […]).
Quantitative PET image analysis was performed by defining ROIs in the heart left ventricle (blood pool) and aortic arch as identified on the basis of the CT angiography by using the Inveon Research Workplace software (Siemens Medical Solutions, Knoxville, TN, USA). Time frames 10–20 min after injection were used for PET quantification, as previously reported in the same mouse model using ^68Ga-DOTA-Siglec-9 [4]. The results within ROIs were expressed as SUV and target-to-background ratio (SUVmax,aortic arch/SUVmean,blood).

Experiment [2] deals with atherosclerotic plaques in LDLR^−/−ApoB^100/100 mouse aorta. Kind of experiment: Autoradiography of aortic cryosections of atherosclerotic mice. In kind it is in vivo. Particulars: LDLR^−/−ApoB^100/100 mice, n = 12, mean ± SD. How it is done:
Autoradiography was used to study the distribution of radioactivity in the aorta in more detail, as described previously. After careful superimposition of the autoradiographs and H&E stained images, the count densities of 540 ROIs (185: plaques, 241: normal vessel walls, and 114: adventitia) were analyzed using Tina 2.1 software. The autoradiography results were calculated as the photostimulated luminescence per unit area (PSL/mm^2) normalized for injected radioactivity dose, and as ratios between the atherosclerotic plaque, normal vessel wall, and adventitia.

Positions of bridges follow the written chain, without caps; N, C: chain ends. Residues, ends and D or L forms follow the SMILES beside them. *: point of attachment. X1 = O=C(CON=C[C@H](O)[C@H](O)[C@H](O)CF)*; AEEA = NCCOCCOCC(=O)O

Regarding `CC(C)C[C@@H]1NC(=O)CNC(=O)[C@H](CCCNC(=N)N)NC(=O)[C@H](Cc2c[nH]c3ccccc23)NC(=O)[C@H](CO)NC(=O)[C@H](CC(C)C)NC(=O)[C@H](CO)NC(=O)[C@H](CC(C)C)NC(=O)[C@H](CCCNC(=N)N)NC(=O)[C@H](C)NC(=O)[C@@H](NC(=O)COCCOCCNC(=O)CON=C[C@H](O)[C@H](O)[C@H](O)CF)CSSC[C@@H](C(=O)N2CCC[C@H]2C(=O)N[C@@H](CO)C(=O)N[C@@H](CCCCN)C(=O)O)NC(=O)[C@H](CC(C)C)NC(=O)[C@H]([C@@H](C)O)NC1=O` [^18F-FDR-Siglec-9] ({X1-AEEA}-CARLSLSWRGLTLCPSK-OH; disulfide 1-14; N-terminus and C-terminus assumed), in experiment [1], the “target-to-background ratio (SUVmax,aortic arch/SUVmean,blood)” value worked out at 1.6 ± 0.078. In addition, in experiment [2], the plaque-to-adventitia ratio was 2.2 ± 0.53 and the “plaque-to-healthy vessel wall ratio” value worked out at 1.9 ± 0.23.
